Source: ChEMBL document CHEMBL1122929, “6,7-Dihydro-5-[[(cis-2-hydroxy-trans-3-phenoxycyclopentyl)amino] methyl]-2-methylbenzo[b]thiophen-4(5H)-one: a novel alpha 1-adrenergic receptor antagonist and renal vasodilator” (J Med Chem, 1985)
Activity calls are given as the source filed them. No cut-off for these calls is given here.

Key:
Canis familiaris [1] = species: Canis familiaris; assay: Dose required to reduce blood pressure by 15% (ED15) was calculated.; assay type: functional; conditions: Canis lupus familiaris
Canis familiaris [2] = assay: Mean arterial blood pressure (MABP) was evaluated in anesthetized dog by intravenous administration of compound at 1 mg/kg; assay type: functional, Canis lupus familiaris
Rattus norvegicus [3] = assay: Mean arterial blood pressure (MABP) was evaluated in conscious hypertensive rats by peroral administration of compound at 30 mg/kg; assay type: functional; conditions: route oral
[4] = molecular target: T1, Adrenergic receptor alpha-2 (Rattus norvegicus, UniProt P22086+P19328+P22909); assay: Ability to inhibit 50% specific binding of [3H]-p-amino clonidine radioligand to alpha-2 adrenergic receptor in rat cerebrocortex; assay type: tissue-based, Cortex
T1 sequence (P22086 whole entry): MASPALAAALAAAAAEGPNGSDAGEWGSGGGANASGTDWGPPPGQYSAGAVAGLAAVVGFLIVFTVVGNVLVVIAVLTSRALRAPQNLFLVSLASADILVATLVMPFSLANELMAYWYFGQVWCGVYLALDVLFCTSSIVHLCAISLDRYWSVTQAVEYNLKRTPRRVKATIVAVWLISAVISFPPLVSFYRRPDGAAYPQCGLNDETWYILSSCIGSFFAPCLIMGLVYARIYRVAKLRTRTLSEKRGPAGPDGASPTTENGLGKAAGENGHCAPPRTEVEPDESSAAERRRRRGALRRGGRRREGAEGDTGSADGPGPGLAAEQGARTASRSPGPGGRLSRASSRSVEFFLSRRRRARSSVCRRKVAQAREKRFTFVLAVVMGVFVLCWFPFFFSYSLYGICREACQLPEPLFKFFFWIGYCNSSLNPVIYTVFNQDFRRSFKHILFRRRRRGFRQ
T1 sequence (P19328 whole entry): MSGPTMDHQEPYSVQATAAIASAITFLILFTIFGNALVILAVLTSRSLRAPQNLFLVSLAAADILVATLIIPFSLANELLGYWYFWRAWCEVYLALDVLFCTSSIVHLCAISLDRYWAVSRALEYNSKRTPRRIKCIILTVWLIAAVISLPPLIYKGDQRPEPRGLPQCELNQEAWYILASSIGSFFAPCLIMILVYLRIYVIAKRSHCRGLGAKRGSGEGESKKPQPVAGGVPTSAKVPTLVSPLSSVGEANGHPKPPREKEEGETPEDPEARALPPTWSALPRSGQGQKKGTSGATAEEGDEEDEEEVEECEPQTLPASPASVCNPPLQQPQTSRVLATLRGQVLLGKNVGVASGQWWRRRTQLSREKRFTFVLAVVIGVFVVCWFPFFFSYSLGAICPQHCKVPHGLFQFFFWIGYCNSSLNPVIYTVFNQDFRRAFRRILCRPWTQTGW
T1 sequence (P22909 whole entry): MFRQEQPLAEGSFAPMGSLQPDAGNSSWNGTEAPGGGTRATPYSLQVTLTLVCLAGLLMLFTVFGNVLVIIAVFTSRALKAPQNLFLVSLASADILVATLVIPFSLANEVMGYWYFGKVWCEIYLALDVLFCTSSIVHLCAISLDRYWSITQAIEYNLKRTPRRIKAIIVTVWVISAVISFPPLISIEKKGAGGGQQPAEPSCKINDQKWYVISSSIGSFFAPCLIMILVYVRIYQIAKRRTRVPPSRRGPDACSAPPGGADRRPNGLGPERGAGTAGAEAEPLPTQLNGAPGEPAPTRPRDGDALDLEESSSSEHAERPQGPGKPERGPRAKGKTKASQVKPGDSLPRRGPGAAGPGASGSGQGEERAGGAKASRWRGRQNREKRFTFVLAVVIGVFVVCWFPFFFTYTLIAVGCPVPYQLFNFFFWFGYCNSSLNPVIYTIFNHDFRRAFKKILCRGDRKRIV

Canis familiaris [5] = assay: Mean arterial blood pressure (MABP) was evaluated in anesthetized dog after intravenous administration of 1 mg/kg of compound; assay type: functional, Canis lupus familiaris
Rattus norvegicus [6] = assay: Mean arterial blood pressure (MABP) was evaluated in chronically cannulated spontaneously hypertensive rats (SHR) after peroral administration 30 mg/kg of compound; […]; assay type: functional
[7] = molecular target: T2, Adrenergic receptor alpha-1 (Rattus norvegicus, UniProt P15823+P23944+P43140); assay: Ability to inhibit 50% specific binding of [3H]prazosin radioligand to alpha-1 adrenergic receptor in rat cerebrocortex; assay type: tissue-based, Cortex
T2 sequence (P15823 whole entry): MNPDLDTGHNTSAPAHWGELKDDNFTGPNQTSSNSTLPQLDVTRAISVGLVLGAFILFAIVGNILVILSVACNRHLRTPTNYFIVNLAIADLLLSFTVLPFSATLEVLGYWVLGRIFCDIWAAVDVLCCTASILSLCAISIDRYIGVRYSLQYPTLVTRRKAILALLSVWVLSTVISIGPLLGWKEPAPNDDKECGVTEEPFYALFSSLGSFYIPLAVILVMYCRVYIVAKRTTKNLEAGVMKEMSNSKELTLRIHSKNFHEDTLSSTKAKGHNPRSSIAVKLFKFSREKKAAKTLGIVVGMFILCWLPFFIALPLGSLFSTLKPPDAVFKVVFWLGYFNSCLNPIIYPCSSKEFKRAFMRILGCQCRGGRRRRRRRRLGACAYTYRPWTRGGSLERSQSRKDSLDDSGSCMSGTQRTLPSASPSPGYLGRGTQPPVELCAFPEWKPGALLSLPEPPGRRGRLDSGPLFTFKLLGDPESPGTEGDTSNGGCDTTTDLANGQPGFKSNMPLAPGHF
T2 sequence (P23944 whole entry): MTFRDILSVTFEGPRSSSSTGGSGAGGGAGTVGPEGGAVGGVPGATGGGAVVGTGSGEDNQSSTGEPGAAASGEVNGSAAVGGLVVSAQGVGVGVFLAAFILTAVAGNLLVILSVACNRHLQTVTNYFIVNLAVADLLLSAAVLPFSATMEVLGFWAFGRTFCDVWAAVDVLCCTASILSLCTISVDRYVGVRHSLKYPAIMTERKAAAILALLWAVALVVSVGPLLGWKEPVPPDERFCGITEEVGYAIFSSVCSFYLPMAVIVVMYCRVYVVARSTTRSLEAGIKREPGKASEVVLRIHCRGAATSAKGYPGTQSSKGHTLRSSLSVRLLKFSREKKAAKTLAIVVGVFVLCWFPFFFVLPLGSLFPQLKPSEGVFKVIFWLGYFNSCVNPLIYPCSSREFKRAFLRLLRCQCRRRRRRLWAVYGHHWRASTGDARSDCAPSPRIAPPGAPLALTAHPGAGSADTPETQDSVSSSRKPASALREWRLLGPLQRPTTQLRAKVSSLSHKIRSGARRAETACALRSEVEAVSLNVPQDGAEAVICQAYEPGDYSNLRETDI
T2 sequence (P43140 whole entry): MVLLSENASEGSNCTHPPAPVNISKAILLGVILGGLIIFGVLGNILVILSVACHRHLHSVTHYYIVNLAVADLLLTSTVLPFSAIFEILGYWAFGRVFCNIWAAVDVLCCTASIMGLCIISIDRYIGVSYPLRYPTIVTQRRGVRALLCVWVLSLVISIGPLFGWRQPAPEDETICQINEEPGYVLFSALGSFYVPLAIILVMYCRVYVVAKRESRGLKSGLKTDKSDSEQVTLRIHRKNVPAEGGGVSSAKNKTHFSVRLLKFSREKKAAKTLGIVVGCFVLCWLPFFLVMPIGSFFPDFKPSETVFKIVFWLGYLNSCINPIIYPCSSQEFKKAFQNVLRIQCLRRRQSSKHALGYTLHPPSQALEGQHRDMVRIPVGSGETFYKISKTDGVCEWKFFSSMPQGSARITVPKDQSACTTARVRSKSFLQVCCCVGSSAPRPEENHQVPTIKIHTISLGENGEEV

[8] = molecular target: Adrenergic receptor alpha-1 (Oryctolagus cuniculus); assay: pA2 value for phenylephrine antagonist towards at alpha-1 adrenergic receptor was determined in rabbit aorta
Canis familiaris [9] = species: Canis familiaris; assay: Dose required to reduce blood pressure by 15% (ED15) was calculated; assay type: functional; conditions: Canis lupus familiaris
Canis familiaris [10] = assay: Mean arterial blood pressure was determined at cumulative dose of 0.01 mg/kg in anesthetized dogs by intravenous administration after SCH 23390 pretreatment; assay type: functional, Canis lupus familiaris
Canis familiaris [11] = assay: Mean arterial blood pressure was determined at cumulative dose of 0.01 mg/kg in anesthetized dogs by intravenous administration after sulpiride pretreatment; assay type: functional, Canis lupus familiaris
Canis familiaris [12] = assay: Mean arterial blood pressure was determined at cumulative dose of 0.03 mg/kg in anesthetized dogs by intravenous administration after SCH 23390 pretreatment; assay type: functional, Canis lupus familiaris
Canis familiaris [13] = assay: Renal blood flow was determined at cumulative dose of 0.1 mg/kg in anesthetized dogs by intravenous administration after sulpiride pretreatment; assay type: functional, Canis lupus familiaris, Kidney
Canis familiaris [14] = assay: Renal blood flow was determined at cumulative dose of 0.3 mg/kg in anesthetized dogs by intravenous administration after SCH 23390 pretreatment; assay type: functional, Canis lupus familiaris, Kidney
Canis familiaris [15] = assay: Renal blood flow was determined at cumulative dose of 0.3 mg/kg in anesthetized dogs by intravenous administration after sulpiride pretreatment; assay type: functional, Canis lupus familiaris, Kidney
Canis familiaris [16] = assay: Renal blood flow was determined at cumulative dose of 1 mg/kg in anesthetized dogs by intravenous administration after SCH 23390 pretreatment; assay type: functional, Canis lupus familiaris, Kidney
Canis familiaris [17] = assay: Renal blood flow was determined at cumulative dose of 1 mg/kg in anesthetized dogs by intravenous administration after sulpiride pretreatment; assay type: functional, Canis lupus familiaris, Kidney
Canis familiaris [18] = assay: Mean arterial blood pressure was determined at cumulative dose of 0.03 mg/kg in anesthetized dogs by intravenous administration after sulpiride pretreatment; assay type: functional, Canis lupus familiaris
Canis familiaris [19] = assay: Mean arterial blood pressure was determined at cumulative dose of 0.1 mg/kg in anesthetized dogs by intravenous administration after SCH 23390 pretreatment; assay type: functional, Canis lupus familiaris
Canis familiaris [20] = assay: Mean arterial blood pressure was determined at cumulative dose of 0.1 mg/kg in anesthetized dogs by intravenous administration after sulpiride pretreatment; assay type: functional, Canis lupus familiaris
Canis familiaris [21] = assay: Mean arterial blood pressure was determined at cumulative dose of 0.3 mg/kg in anesthetized dogs by intravenous administration after SCH 23390 pretreatment; assay type: functional, Canis lupus familiaris
Canis familiaris [22] = assay: Mean arterial blood pressure was determined at cumulative dose of 0.3 mg/kg in anesthetized dogs by intravenous administration after sulpiride pretreatment; assay type: functional, Canis lupus familiaris
Canis familiaris [23] = assay: Mean arterial blood pressure was determined at cumulative dose of 1 mg/kg in anesthetized dogs by intravenous administration after SCH 23390 pretreatment; assay type: functional, Canis lupus familiaris
Canis familiaris [24] = assay: Mean arterial blood pressure was determined at cumulative dose of 1 mg/kg in anesthetized dogs by intravenous administration after sulpiride pretreatment; assay type: functional, Canis lupus familiaris
Canis familiaris [25] = assay: Renal blood flow was determined at cumulative dose of 0.01 mg/kg in anesthetized dogs by intravenous administration after SCH 23390 pretreatment; assay type: functional, Canis lupus familiaris, Kidney
Canis familiaris [26] = assay: Renal blood flow was determined at cumulative dose of 0.01 mg/kg in anesthetized dogs by intravenous administration after sulpiride pretreatment; assay type: functional, Canis lupus familiaris, Kidney
Canis familiaris [27] = assay: Renal blood flow was determined at cumulative dose of 0.03 mg/kg in anesthetized dogs by intravenous administration after SCH 23390 pretreatment; assay type: functional, Canis lupus familiaris, Kidney
Canis familiaris [28] = assay: Renal blood flow was determined at cumulative dose of 0.03 mg/kg in anesthetized dogs by intravenous administration after sulpiride pretreatment; assay type: functional, Canis lupus familiaris, Kidney
Canis familiaris [29] = assay: Renal blood flow was determined at cumulative dose of 0.1 mg/kg in anesthetized dogs by intravenous administration after SCH 23390 pretreatment; assay type: functional, Canis lupus familiaris, Kidney

| SMILES | ED15 (Canis familiaris [1]) [mg/kg] | IC50 [4] [nM] | Max delta MABP (Canis familiaris [5]) [mmHg] | Max delta MABP (Rattus norvegicus [6]; route oral) [mmHg] | IC50 [7] [nM] | pA2 [8] | Max delta MABP (Rattus norvegicus [6]) | other results |
| --- | --- | --- | --- | --- | --- | --- | --- | --- |
| COc1cc2nc(N3CCN(C(=O)c4ccco4)CC3)nc(N)c2cc1OC [PRAZOSIN] | 0.1 |  |  |  |  |  |  | Max delta MABP (Canis familiaris [2]): -30 mmHg; Max delta MABP (Rattus norvegicus [3]): -45 mmHg |
| Cc1cc2c(s1)CCC(CN[C@@H]1CC[C@@H](Oc3ccccc3)[C@H]1O)C2=O (some centres not stated) | 0.61 | 100 | -31 | -34 | 45 | 7.4 |  |  |
| Cc1cc2c(s1)CCC(CN[C@H]1CC[C@@H](Oc3ccccc3)[C@@H]1O)C2=O (some centres not stated) |  | > 1000 | -8 |  | 90 | 7.04 | inactive | ED15 (Canis familiaris [9]): > 10 mg/kg |
| Cc1cc2c(s1)CCC(CN[C@H]1CC[C@@H](Oc3ccccc3)[C@H]1O)C2=O (some centres not stated) | 3.3 | 600 | -16 |  | 55 | 7.28 | inactive |  |
| Cc1cc2c(s1)CCC(CN[C@@H]1CC[C@@H](Oc3ccccc3)[C@@H]1O)C2=O.Cl (some centres not stated) | 0.08 | 800 | -47 | -70 | 8 | 8.13 |  | Delta MABP (Canis familiaris [10]): -3%; Delta MABP (Canis familiaris [11]): -3%; Delta MABP (Canis familiaris [12]): -6%; Delta RBF (Canis familiaris [13]): 9%; Delta RBF (Canis familiaris [14]): -1%; Delta RBF (Canis familiaris [15]): 9%; Delta RBF (Canis familiaris [16]): -6%; Delta RBF (Canis familiaris [17]): -1%; Delta MABP (Canis familiaris [18]): -10%; Delta MABP (Canis familiaris [19]): -10%; Delta MABP (Canis familiaris [20]): -14%; Delta MABP (Canis familiaris [21]): -15%; Delta MABP (Canis familiaris [22]): -21%; Delta MABP (Canis familiaris [23]): -22%; Delta MABP (Canis familiaris [24]): -29%; Delta RBF (Canis familiaris [25]): -2%; Delta RBF (Canis familiaris [26]): 6%; Delta RBF (Canis familiaris [27]): -1%; Delta RBF (Canis familiaris [28]): 10%; Delta RBF (Canis familiaris [29]): -1% |
